Molecular target: PcVHA-a (vacuolar H+-ATPase subunit a; Pc106526)
Assay: microscale thermophoresis with lysate of mCherry-fusion transformants
Format: binding, Phytophthora capsici
Conditions: 25 °C; 20% MST power; total protein lysate; mCherry-only control

SMILES: O=C(NCc1ncc(C(F)(F)F)cc1Cl)c1c(Cl)cccc1Cl [fluopicolide]
- Kd: 17.9 µM
